Test system: AβOs
Experiment: Western blot assay of AβOs formation in MC65 cells (6E10 antibody)
Type: cell-based, human
Details: 10 μM, 24 hrs after removal of TC
Text: Inhibition of AβOs production by designed BMAOIs. […] The whole cell assay is a composite of not only Aβ oligomerization inhibition but also permeability, stability and other factors will validate the accessibility and function of our BMAOIs. MC65 is a human neuroblastoma cell line that conditionally expresses C99, the C-terminus fragment of APP using tetracycline (TC) as transgene suppressor.^38 Upon removal of TC, these cells can produce intracellular Aβ aggregates including small AβOs. […] All BMAOIs were first evaluated at a single concentration of 10 μM. Candidate compounds with inhibitory activities at this concentration were further evaluated in a dose-dependent manner in the following assays. […]
Western blot assay. […] Pellet was lysed by sonication in 1× lysis buffer (62.5 mM Tris base, pH6.8, 2% SDS, 50 mM DTT, 10% glycerol, 0.1% bromphenol blue, and […] each chymostatin, leupeptin, aprotinin, pepstatin, and soybean trypsin inhibitor) and protein level was determined using Coomassie Protein Assay Reagent (Pierce, Rockford, Ill.). […]

## COc1cc(C=CC(=O)C(Cc2cn(CCCCCCNC(=O)CCNC(=O)CCNC(=O)COC3CCC4(C)C(=CCC5C4CCC4(C)C(C(C)CCCC(C)C)CCC54)C3)nn2)C(=O)C=Cc2ccc(O)c(OC)c2)ccc1O (stereo not shown) [BMAOI 14]
  inhibition of the formation of AβOs (Western blot): significantly inhibited
